# Data published in PMC3388044, “Probing of Exosites Leads to Novel Inhibitor Scaffolds of HCV NS3/4A Proteinase” (PLoS ONE, 2012).
# Test system: HCV replicon (NS3/4A D168A)
# Assay: not given
# Conditions: fold change vs WT, mutant HCV replicon; cited from earlier work
row,SMILES,D168A FC (replicon)
1,"CC(C)(C)NC(=O)N[C@H](C(=O)N1C[C@H]2[C@@H]([C@H]1C(=O)NC(CC1CCC1)C(=O)C(N)=O)C2(C)C)C(C)(C)C (some centres unmarked) [Boceprevir, boceprevir]",0.7

# Same assay, conditions: mutant HCV replicon with luciferase readout; cited from earlier work
row,SMILES,IC50 [µM]
1,"CC(C)(C)NC(=O)N[C@H](C(=O)N1C[C@H]2[C@@H]([C@H]1C(=O)NC(CC1CCC1)C(=O)C(N)=O)C2(C)C)C(C)(C)C (some centres unmarked) [Boceprevir, boceprevir]",0.1

# Test system: HCV replicon (NS3/4A V170A)
# Assay: not given
# Conditions: fold change vs WT, mutant HCV replicon; cited from earlier work
row,SMILES,V170A FC (replicon)
1,"CC(C)(C)NC(=O)N[C@H](C(=O)N1C[C@H]2[C@@H]([C@H]1C(=O)NC(CC1CCC1)C(=O)C(N)=O)C2(C)C)C(C)(C)C (some centres unmarked) [Boceprevir, boceprevir]",5.8

# Same assay, conditions: mutant HCV replicon with luciferase readout; cited from earlier work
row,SMILES,IC50 [µM]
1,"CC(C)(C)NC(=O)N[C@H](C(=O)N1C[C@H]2[C@@H]([C@H]1C(=O)NC(CC1CCC1)C(=O)C(N)=O)C2(C)C)C(C)(C)C (some centres unmarked) [Boceprevir, boceprevir]",1.55

# Test system: HCV replicon (NS3/4A R155K)
# Assay: not given
# Conditions: fold change vs WT, mutant HCV replicon; cited from earlier work
row,SMILES,R155K FC (replicon)
1,"CC(C)(C)NC(=O)N[C@H](C(=O)N1C[C@H]2[C@@H]([C@H]1C(=O)NC(CC1CCC1)C(=O)C(N)=O)C2(C)C)C(C)(C)C (some centres unmarked) [Boceprevir, boceprevir]",4.7

# Same assay, conditions: mutant HCV replicon with luciferase readout; cited from earlier work
row,SMILES,IC50 [µM]
1,"CC(C)(C)NC(=O)N[C@H](C(=O)N1C[C@H]2[C@@H]([C@H]1C(=O)NC(CC1CCC1)C(=O)C(N)=O)C2(C)C)C(C)(C)C (some centres unmarked) [Boceprevir, boceprevir]",0.743

# Test system: HCV replicon (NS3/4A V36M)
# Assay: not given
# Conditions: fold change vs WT, mutant HCV replicon; cited from earlier work
row,SMILES,V36M FC (replicon)
1,"CC(C)(C)NC(=O)N[C@H](C(=O)N1C[C@H]2[C@@H]([C@H]1C(=O)NC(CC1CCC1)C(=O)C(N)=O)C2(C)C)C(C)(C)C (some centres unmarked) [Boceprevir, boceprevir]",1.8

# Same assay, conditions: mutant HCV replicon with luciferase readout; cited from earlier work
row,SMILES,IC50 [µM]
1,"CC(C)(C)NC(=O)N[C@H](C(=O)N1C[C@H]2[C@@H]([C@H]1C(=O)NC(CC1CCC1)C(=O)C(N)=O)C2(C)C)C(C)(C)C (some centres unmarked) [Boceprevir, boceprevir]",0.217

# Test system: HCV replicon (NS3/4A A156T)
# Assay: not given
# Conditions: mutant HCV replicon with luciferase readout; cited from earlier work
row,SMILES,IC50 [µM]
1,"CC(C)(C)NC(=O)N[C@H](C(=O)N1C[C@H]2[C@@H]([C@H]1C(=O)NC(CC1CCC1)C(=O)C(N)=O)C2(C)C)C(C)(C)C (some centres unmarked) [Boceprevir, boceprevir]",7.23

# Target: T1, HCV NS3/4A (wild-type) (Hepatitis C virus genotype 1b, UniProt O92972)
# T1 construct: The NS3/4A construct represented the individual NS3 proteinase domain N-terminally fused with an NS4A co-factor; 6xHis; purchased AnaSpec (Fremont, CA)
# Assay: NS3/4A activity assay with FRET peptide substrate, wild-type enzyme
# Format: biochemical, HCV genotype 1b, strain HC-J4
# Conditions: Table S1 100-1000; wild-type NS3/4A, FRET peptide substrate; read-out: NS3/4A IC50 range class 100-1000
# Source text: Reagents were purchased from Sigma unless indicated otherwise. The FRET substrate Ac-DE-D(Edans)-EE-Abu-ψ-[COO]-AS-K(Dabsyl)-NH2, purified recombinant wild-type NS3/4A from HCV genotype 1b, strain HC-J4, and the mutants with the V36M, R155K, A156T, D168A and V170A resistance mutations were from AnaSpec (Fremont, CA). The NS3/4A construct represented the individual NS3 proteinase domain N-terminally fused with an NS4A co-factor and tagged with a 6xHis tag. NS3/4A was in active form and the pre-activation by pep-4A or pep4AK was not necessary. Pyroglutamic acid-Arg-Thr-Lys-Arg-7-amino-4-methylcoumarin was from Peptides International (Louisville, KY). West Nile virus NS2B-NS3 proteinase (strain NY99) was expressed, purified and refolded to restore its functional activity as described earlier. The pET15b-Den2-CF40-Gly-NS3pro 185 plasmid encoding the Dengue virus type 2 NS2B-NS3 protease was a kind gift of Dr. Subhash Vasudevan (Program in Emerging Infectious Diseases, DUKE-NUS Graduate Medical School, Singapore). DV NS2B-NS3 proteinase was expressed purified and refolded to restore its functional activity as described previously, [70]. The expression of the soluble C-terminally truncated human furin construct in Sf9 insect cells (an ovarian cell line from fall armyworm Spodoptera frugiperda; Invitrogen, Carlsbad, CA) infected with the recombinant baculovirus and purification of soluble furin from the medium were described earlier. Original human hepatocarcinoma Huh7 cells were obtained from ATCC (Manassas, VA).
# The NS3/4A activity assay was performed at 37°C in triplicate in wells of a 96-well plate in 0.2 ml 50 mM HEPES, pH 7.5, containing 100 mM NaCl, 10 mM DTT, 20% glycerol, the Ac-DE-D(Edans)-EE-Abu-ψ-[COO]-AS-K(Dabsyl)-NH2 substrate (10 µM) and the NS3/4A enzyme (10 nM). Reaction velocity was monitored continuously at λex = 355 nm and λem = 500 nm for 10 min using a Spectramax Gemini EM fluorescence spectrophotometer (Molecular Devices, Sunnyvale, CA) and the initial rate of reaction v was recorded for each reaction. There was no significant additional absorption by compounds 1–8 we identified, which might interfere with NS3/4A assay. Compound stock solutions (10 mM) were made in 100% DMSO. Stocks were then diluted using the assay buffer. As a result, the final DMSO concentration was always below 1% in the assay reactions.
# To measure the inhibitory potency of the compounds, their increasing concentrations were pre-incubated with the individual proteinases in the corresponding buffer for 30 min at ambient temperature. At least, 7–9 different concentrations were used for each inhibitor. The residual activity of the enzymes was then measured as above. The IC50 values of the inhibitory compounds were calculated by determining the concentrations of the compounds needed to inhibit 50% of the enzyme activity against the peptide substrate. GraphPad Prism was used as fitting software.
row,SMILES,IC50 [µM]
1,Cn1ncc2c(Nc3ccc(O)cc3)nc(Cl)nc21 [Compound 42],100 to 1000
2,CC(C)(CCC#N)c1nc2sc(C(C)(C)CCC#N)nc2s1 [Compound 43],100 to 1000
3,CN(C)CCCNc1nc(-c2cccc(C(Cl)(Cl)Cl)c2)nc(C(Cl)(Cl)Cl)n1 [Compound 44],100 to 1000
4,FC(F)(F)C(F)(F)c1nc2nc(Cl)c(Cl)nc2[nH]1 [Compound 45],100 to 1000
5,Clc1nc2nc3n(c2nc1Cl)CCC3 [Compound 46],100 to 1000
6,CSc1nc2nc(Cl)c(Cl)nc2[nH]1 [Compound 47],100 to 1000
7,FC(F)(F)C1=N/C(=C2\N=C(C(F)(F)F)N=C2Cl)C(Cl)=N1 [Compound 48],100 to 1000
8,CC(CNc1nc(Nc2ccc(Cl)c(Cl)c2)nc(C(Cl)(Cl)Cl)n1)N(C)C (centres unmarked) [Compound 49],100 to 1000
9,NC(=S)/N=C(\c1nc2ccc(Cl)cc2[nH]c1=O)C(O)c1ccccc1Cl (centres unmarked) [Compound 50],100 to 1000
10,OCCOCn1nc(-c2ccccc2)nc1-c1cnccn1 [Compound 51],100 to 1000
11,O=S(=O)(Nc1c(Cl)c(Cl)c(Cl)c(Cl)c1NS(=O)(=O)c1ccccc1)c1ccccc1 [Compound 52],100 to 1000
12,O=[N+]([O-])c1cc([N+](=O)[O-])c2ccccc2c1NS(=O)(=O)c1ccc(Cl)c(Cl)c1Cl [Compound 53],100 to 1000
13,O=C(CCc1nnc2s/c(=C\c3ccccc3[N+](=O)[O-])c(=O)n12)Nc1cc(Cl)c(Cl)cc1Cl [Compound 54],100 to 1000
14,O=C(Nc1ccc(Br)cc1)C(=O)C(C(=O)c1ccc(Cl)c(Cl)c1)C1OC(=O)c2ccccc21 (centres unmarked) [Compound 55],100 to 1000
15,Cc1cccc(C(C)C)c1NC(=O)C(=O)CC(=O)c1sc(Nc2ccccc2Cl)nc1C [Compound 56],100 to 1000
16,CC(=O)Nc1ccc(NC(=O)c2c(Cl)c(Cl)c(Cl)c(Cl)c2-c2nc3ccccc3[nH]2)cc1 [Compound 57],100 to 1000
17,COc1ccc(OC)c(NC(=O)c2c(Cl)c(Cl)c(Cl)c(Cl)c2-c2nc3ccccc3[nH]2)c1 [Compound 58],100 to 1000
18,S=c1[nH]n2c(COc3ccc(OCc4nnc5sc(=S)[nH]n45)c(Cl)c3)nnc2s1 [Compound 59],100 to 1000
19,Cc1cc(S(=O)(=O)Nc2nc3ccsc3c(=O)n2Cc2ccccc2)c(S)cc1Cl [Compound 60],100 to 1000

# Same assay, conditions: Table S1; wild-type NS3/4A, FRET peptide substrate; read-out: NS3/4A IC50 range class 10 -100
row,SMILES,IC50 [µM]
1,Cn1ncc2c(Nc3cc(Cl)ccc3Cl)ncnc21 [Compound 12],10 to 100
2,Oc1c(Br)cc(CN(Cc2cc(Br)c(O)c(Br)c2)C2CCCCC2)cc1Br [Compound 13],10 to 100
3,Oc1ccc(C=NCCN=Cc2ccc(O)cc2O)c(O)c1.[Ni] [Compound 14],10 to 100
4,O=C1C=C(Nc2ccc(Cl)cc2Cl)C(=O)C=C1Nc1ccc(Cl)cc1Cl [Compound 15],10 to 100
5,O=C1c2cc(Cl)ccc2-c2ccc(N=Cc3ccc(Cl)c(Cl)c3)cc21 [Compound 16],10 to 100
6,O=C(CCCC(=O)N/N=C/c1ccc(Cl)cc1Cl)N/N=C/c1ccc(Cl)cc1Cl [Compound 17],10 to 100

# Test system: HCV replicon (WT NS3/4A)
# Assay: not given
# Conditions: HCV replicon with luciferase readout; cited from earlier work
row,SMILES,IC50 [µM]
1,"CC(C)(C)NC(=O)N[C@H](C(=O)N1C[C@H]2[C@@H]([C@H]1C(=O)NC(CC1CCC1)C(=O)C(N)=O)C2(C)C)C(C)(C)C (some centres unmarked) [Boceprevir, boceprevir]",0.148
